The test deals with T1, DENV protease (Dengue virus type 2, UniProt P29990).
T1 construct: The virus-encoded dengue protease comprises the amino-terminal 180 amino acids of NS3 (NS3pro) of the polyprotein
Description: biochemical. The following applies: read-out: inhibition of DENV. As for the experimental part:
Dilutions were made starting from 10 mM stock solutions in DMSO and final concentrations were measured in triplicates. The inhibitors were preincubated for 15 min with DENV protease (100 nM) in the assay buffer (50 mM Tris-HCl pH 9.0, ethylene glycol (10% v/v), and 0.0016% Brij 58). The enzymatic reaction was initiated by the addition of the FRET substrate (final concentration 50 μM) to obtain a final assay volume of 100 μL per well. The enzymatic activity was monitored for 15 min and determined as a slope of relative fluorescence units per second (RFU/s) for each concentration. The mean of the triplicates were plotted against the corresponding concentration in CDDVault to determine the IC50-values. Analogous procedures were used to determine the inhibitory potency on WNV (Kühl et al., J. Med. Chem. 2020, 63 (15): 8179-8197) and ZIKA protease (Nitsche et al., ACS Med. Chem. Lett. 2019 Feb. 14; 10 (2): 168-174). For selectivity screening of active candidates, similar biochemical assays with human serine proteases trypsin (Weigel et al., J. Med. Chem. 2015, 58 (19), 7719-7733.) and/or thrombin (Nitsche et al., J. Med. Chem. 2013, 56 (21), 8389-8403) were used.

The inhibition is the change of the read-out against control, counted positive when it falls.

Where a SMILES comes first, the peptide text is derived from it. [ ]: non-standard residue; d: D form. The star is where a group is joined. Phe(4-guanidino) = N=C(N)Nc1ccc(C[C@H](N)C(=O)O)cc1; Benzoyl(4-Ph) = O=C(c1ccc(-c2ccccc2)cc1)*; Palmitoyl = CCCCCCCCCCCCCCCC(=O)*; NHhexadecyl = CCCCCCCCCCCCCCCCN*; 4Pal = N[C@@H](Cc1ccncc1)C(=O)O; Myristoyl = CCCCCCCCCCCCCC(=O)*; Lauroyl = CCCCCCCCCCCC(=O)*; hLys = NCCCCC[C@H](N)C(=O)O; β3hK = NCCCC[C@H](N)CC(=O)O; Pip = O=C(O)[C@@H]1CCCCN1; Octanoyl = CCCCCCCC(=O)*; NHOctyl = CCCCCCCCN*

T1 sequence (P29990 1398-1437): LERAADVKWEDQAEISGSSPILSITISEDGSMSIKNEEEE
T1 sequence (P29990 1476-1653): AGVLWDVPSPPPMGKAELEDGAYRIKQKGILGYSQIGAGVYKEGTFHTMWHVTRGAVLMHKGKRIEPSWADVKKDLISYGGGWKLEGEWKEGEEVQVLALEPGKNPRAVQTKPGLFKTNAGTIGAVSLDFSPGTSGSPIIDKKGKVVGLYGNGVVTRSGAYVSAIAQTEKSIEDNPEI

On to `CCCCCCCCCCCCCCCCNC(=O)[C@H](CCCCN)NC(=O)[C@H](C)NC(=O)[C@@H](N)CCCCN` [compound 98], for which the inhibition at 50 µM is at least 25%.

Turning to `CCCCCCCCCCCCCCCC(=O)N[C@@H](CCCCN)C(=O)N[C@@H](C)C(=O)N[C@@H](C)C(=O)N[C@H](C(N)=O)c1ccc(OCc2ccccc2)cc1` [compound 139], the inhibition at 50 µM was at least 25%.

Take `CCCCCCCCCCCCCCCC(=O)N[C@@H](CCCCN)CC(=O)N[C@@H](C)C(=O)N[C@@H](C)C(=O)N[C@@H](CCCCN)C(N)=O` [compound 82] (Palmitoyl-[β3hK]AAK-NH2): the inhibition at 50 µM was at least 25%.

In the case of `CCCCCCCCNC(=O)[C@H](CCCCN)NC(=O)[C@H](C)NC(=O)[C@H](CCCCN)NC(=O)[C@H](CC(C)C)NC(=O)CCCCCCC` [compound 25] (Octanoyl-LKAK-NHOctyl), the inhibition at 50 µM is at least 25%.

On to `CCCCCCCCCCCCCCCC(=O)N[C@@H](CCCCN)C(=O)N1CCC[C@H]1C(=O)N[C@@H](C)C(=O)N[C@H](C(N)=O)c1ccc(OCc2ccccc2)cc1` [compound 130], for which the inhibition at 50 µM was at least 25%.

Consider `CCCCCCCCCCCCCCCC(=O)N[C@@H](CCCCN)C(=O)N[C@@H](C)C(=O)N[C@@H](C)C(=O)N[C@H](CCCCN)C(=O)NS(=O)(=O)C1CC1` [compound 135], for which the inhibition at 50 µM is at least 25%.

Regarding `CCCCCCCCCCCCCCCCNC(=O)[C@H](CCCCN)NC(=O)[C@H](CCC(N)=O)NC(=O)[C@H](CCCNC(=N)N)NC(=O)[C@H](C)N` [compound 32] (H-ARQK-NHhexadecyl), the inhibition at 50 µM is at least 25%.

For the compound `CCCCCCCCCCCCCCCC(=O)N[C@@H](CCCNC(=N)N)C(=O)N[C@@H](CCC(N)=O)C(=O)N[C@@H](Cc1ccccc1)B(O)O` [compound 60], the inhibition at 50 µM is at least 25%.

With `CCCCCCCCCCCCCCCC(=O)N[C@@H](CCCCN)CC(=O)N[C@@H](C)C(=O)N[C@@H](C)CC(=O)N[C@H](CCc1ccccc1)C(N)=O` [compound 91], the inhibition at 50 µM was at least 25%.

For the compound `CCCCCCCCCCCC(=O)N[C@@H](C)C(=O)N[C@@H](CCCCN)C(=O)N[C@@H](C)C(=O)N[C@H](C)C(N)=O` [compound 152] (Lauroyl-AKA[dA]-NH2), the inhibition at 50 µM is at least 25%.

With `CCCCCCCCCCCCCCCC(=O)N[C@@H](C)C(=O)N[C@@H](C)C(=O)N[C@@H](C)C(=O)N[C@H](CCCCN)C(N)=O` [compound 150] (Palmitoyl-AAA[dK]-NH2), the inhibition at 50 µM is at least 25%.

Consider `CCCCCCCCCCCCCCCC(=O)N[C@@H](Cc1c[nH]cn1)C(=O)N[C@@H](CCC(N)=O)C(=O)N[C@@H](Cc1ccccc1)C(N)=O` [compound 52] (Palmitoyl-His-Gln-Phe-NH2), for which the inhibition at 50 µM was at least 25%.

Consider `CCCCCCCCCCCCCCCC(=O)N[C@@H](CCCCN)C(=O)N[C@@H](CCCNC(=N)N)C(N)=O` [compound 111] (Palmitoyl-Lys-Arg-NH2), for which the inhibition at 50 µM is at least 25%.

Consider `CCCCCCCCNC(=O)[C@H](CCCCN)NC(=O)[C@H](CCCNC(=N)N)NC(=O)[C@H](C)NC(=O)[C@H](CCCNC(=N)N)NC(=O)CCCCCCC` [compound 29] (Octanoyl-RARK-NHOctyl), for which the inhibition at 50 µM was at least 25%.

Consider `CCCCCCCCCCCCCCCC(=O)N[C@@H](CCCCN)C(=O)N[C@@H](C)C(=O)N1CCC[C@H]1C(=O)N[C@@H](CCCCN)C(N)=O` [compound 133] (Palmitoyl-KAPK-NH2), for which the inhibition at 50 µM was at least 25%.

With `CCCCCCCCCCCCCCCC(=O)N[C@@H](CCCCN)C(=O)N[C@@H](C)C(=O)N[C@@H](C)C(=O)N[C@@H](CCc1c[nH]cn1)C(N)=O` [compound 172], the inhibition at 1 µM is at least 20% and the inhibition at 50 µM is at least 25%.

In the case of `CCCCCCCCCCCCCCCC(=O)N[C@@H](CCCCN)C(=O)N1CCC[C@H]1C(=O)N[C@@H](C)C(=O)N[C@@H](Cc1c[nH]cn1)C(N)=O` [compound 163] (Palmitoyl-KPAH-NH2), the inhibition at 50 µM is at least 25%.

On to `CCCCCCCCCCCCCCCC(=O)N[C@@H](CCCCN)C(=O)N1CCCC[C@H]1C(=O)N[C@@H](Cc1cnc[nH]1)C(=O)N[C@@H](CCCCN)C(N)=O` [compound 14] (Palmitoyl-K[Pip]HK-NH2), for which the inhibition at 50 µM was at least 25%.

Take `CCCCCCCCCCCCCCCC(=O)N[C@@H](CCCCN)C(=O)N[C@@H](C)C(=O)N[C@@H](C)C(=O)N[C@H](CCc1ccccc1)c1nnc(C)o1` [compound 3]: the inhibition at 50 µM was at least 25%.

For the compound `CCCCCCCCCCCCCCCC(=O)N[C@@H](Cc1ccc(NC(=N)N)cc1)C(=O)N[C@@H](CCC(N)=O)C(=O)N[C@@H](Cc1ccccc1)C(N)=O` [compound 68] (Palmitoyl-[Phe(4-guanidino)]-Gln-Phe-NH2), the inhibition at 50 µM is at least 25%.

Turning to `CCCCCCCCCCCCCCCC(=O)N[C@@H](C)C(=O)N1C[C@@H](Oc2ccncc2)C[C@H]1C(=O)N[C@@H](C)C(=O)N[C@@H](CCCCN)C(N)=O` [compound 7], the inhibition at 50 µM is at least 25%.

For `CCCCCCCCCCCCCCCC(=O)N[C@@H](Cc1ccncc1)C(=O)N[C@@H](CCC(N)=O)C(=O)N[C@@H](Cc1ccccc1)C(N)=O` [compound 63] (Palmitoyl-[4Pal]-Gln-Phe-NH2), the inhibition at 50 µM was at least 25%.

Regarding `CCCCCCCCCCCCCCCC(=O)N[C@@H](CCCCN)C(=O)N[C@H](C)C(=O)N[C@@H](CCCCN)C(N)=O` [compound 146] (Palmitoyl-Lys-[dA]-Lys-NH2), the inhibition at 50 µM was at least 25%.

Regarding `CCCCCCCCCCCCCCCC(=O)N[C@@H](CCCCN)C(=O)N1CCC[C@H]1C(=O)N[C@@H](C)C(=O)N[C@@H](CCCCN)C(=O)NS(=O)(=O)C1CC1` [compound 127], the inhibition at 50 µM is at least 25%.

In the case of `CCCCCCCCCCCCCCCC(=O)N[C@@H](C)C(=O)N[C@@H](C)C(=O)N[C@@H](CCCCN)C(=O)N[C@H](C)C(N)=O` [compound 149] (Palmitoyl-AAK[dA]-NH2), the inhibition at 50 µM was at least 25%.

On to `CCCCCCCCCCCCCCCC(=O)N[C@@H](CCCCN)C(=O)N1CCC[C@H]1C(=O)N[C@@H](C)C(=O)N[C@@H](CCc1c[nH]cn1)C(N)=O` [compound 165], for which the inhibition at 50 µM is at least 25%.

As for `CCCCCCCCCCCCCCCC(=O)N[C@@H](CCCCN)C(=O)N[C@@H](C)C(=O)N[C@@H](C)C(=O)N[C@H](CCCCN)c1nnc(C)o1` [compound 2], the inhibition at 50 µM was at least 25%.

Regarding `CCCCCCCCCCCCCCCC(=O)N[C@@H](Cc1cccc(NC(=N)N)c1)C(=O)N[C@@H](CCC(N)=O)C(=O)N[C@@H](Cc1ccccc1)C(N)=O` [compound 67], the inhibition at 50 µM was at least 25%.

On to `CCCCCCCCCCCCCCCC(=O)N[C@@H](CCCCCN)C(=O)N1CCC[C@H]1C(=O)N[C@@H](CCCCN)C(N)=O` [compound 121] (Palmitoyl-[hLys]-Pro-Lys-NH2), for which the inhibition at 50 µM is at least 25%.

As for `C[C@H](NC(=O)c1ccc(-c2ccccc2)cc1)C(=O)N[C@@H](CCCNC(=N)N)C(=O)N[C@@H](CCC(N)=O)C(=O)N[C@@H](CCCCN)C(N)=O` [compound 37] ({Benzoyl(4-Ph)}-ARQK-NH2), the inhibition at 50 µM is at least 25%.

On to `CCCCCCCCCCCCCCCC(=O)N[C@@H](CCCCN)C(=O)N[C@@H](C)C(=O)N[C@@H](C)C(=O)N[C@H](CCCCN)C(=O)O` [compound 134] (Palmitoyl-KAA[dK]-OH), for which the inhibition at 50 µM is at least 25%.

As to `CCCCCCCCCCCCCCCC(=O)N[C@@H](CCCCN)C(=O)N[C@H](C)C(=O)N[C@@H](C)C(=O)N[C@@H](CCCCN)C(N)=O` [compound 158] (Palmitoyl-K[dA]AK-NH2), the inhibition at 50 µM is at least 25%.

On to `CCCCCCCCCCCCCCCC(=O)N[C@@H](CCCNC(=N)N)C(=O)N[C@@H](CCC(N)=O)C(=O)N[C@@H](CCCCN)C(=O)c1ccccc1` [compound 42], for which the inhibition at 50 µM was at least 25%.

For `CCCCCCCCCCCCCC(=O)N[C@@H](CCCCN)C(=O)N[C@@H](C)C(=O)N[C@@H](C)C(=O)N[C@H](CCCCN)C(N)=O` [compound 151] (Myristoyl-KAA[dK]-NH2), the inhibition at 50 µM was at least 25%.

With `CCCCCCCCCCCCCCCC(=O)N[C@@H](CCCCN)C(=O)N[C@@H](C)C(=O)N[C@@H](C)C(=O)N[C@H](C)C(N)=O` [compound 147] (Palmitoyl-KAA[dA]-NH2), the inhibition at 50 µM was at least 25%.

Regarding `CCCCCCCCCCCCCCCC(=O)N[C@@H](CCCNC(=N)N)C(=O)N[C@@H](CCCNC(=N)N)C(N)=O` [compound 112] (Palmitoyl-Arg-Arg-NH2), the inhibition at 50 µM is at least 25%.

`CCCCCCCCCCCCCCCC(=O)N[C@@H](CCCCN)C(=O)N[C@@H](C)C(=O)N[C@@H](Cc1cnc[nH]1)C(N)=O` [compound 166] (Palmitoyl-Lys-Ala-His-NH2): the inhibition at 50 µM is at least 25%.

As to `CCCCCCCCCCCCCCCC(=O)N[C@@H](CCCNC(=N)N)C(=O)N[C@@H](CCCCN)C(N)=O` [compound 161] (Palmitoyl-Arg-Lys-NH2), the inhibition at 50 µM is at least 25%.

As to `CCCCCCCCCCCCCCCC(=O)N[C@@H](C)C(=O)N[C@@H](CCCCN)C(=O)N[C@@H](C)C(=O)N[C@H](C)C(N)=O` [compound 148] (Palmitoyl-AKA[dA]-NH2), the inhibition at 1 µM was at least 20% and the inhibition at 50 µM is at least 25%.

For the compound `CCCCCCCCCCCCCCCC(=O)N[C@@H](CCCCN)C(=O)N[C@@H](C)C(=O)N[C@@H](CCCCN)C(=O)O` [compound 188] (Palmitoyl-Lys-Ala-Lys-OH), the inhibition at 50 µM is at least 25%.

The values are drawn from patent US20250059231A1, “Protease inhibitors” (priority 2021, published 2025).
